Laboratory results reported in patent US12643884B2, “1-(2-(4-cyclopropyl-1H-1,2,3-triazol-1-yl)acetyl)-4-hydroxypyrrolidine-2-carboxa|mide derivatives as VHL inhibitors for the treatment of anemia” (Genentech, Inc., priority 2020, dated 2026).

Experiments:
[1] = target: T1, NanoLuc VHL fusion protein stably expressed in HEK 293 cells (Homo sapiens, UniProt P40337); experiment: VHL HEK-293 BRET Assay (VHL NanoBRET Target Engagement Assay); type: cell-based; conditions: for IC50: HEK293 cells, nanoBRET, geometric mean where more than one measurement, read-out: VHL binding in cells (HEK293 nanoBRET); for Ratio cell permeability shift: ratio of nanoBRET in cells to nanoBRET +Digitonin
T1 construct: expressed in transfected cells
T1 sequence (P40337 whole entry, the tested form may be a part): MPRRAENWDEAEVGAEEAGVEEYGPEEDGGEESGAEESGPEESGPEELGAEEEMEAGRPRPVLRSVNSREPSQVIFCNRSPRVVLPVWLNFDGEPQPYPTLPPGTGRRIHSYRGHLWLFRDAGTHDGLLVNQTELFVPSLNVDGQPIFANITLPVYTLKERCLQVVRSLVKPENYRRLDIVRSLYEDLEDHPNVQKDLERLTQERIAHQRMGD
T1 sequence (Q15370 whole entry partner, the tested form may be a part): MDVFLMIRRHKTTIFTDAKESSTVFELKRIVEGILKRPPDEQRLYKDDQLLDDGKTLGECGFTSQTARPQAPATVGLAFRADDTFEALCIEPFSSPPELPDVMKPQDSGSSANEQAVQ
T1 sequence (Q15369 whole entry partner, the tested form may be a part): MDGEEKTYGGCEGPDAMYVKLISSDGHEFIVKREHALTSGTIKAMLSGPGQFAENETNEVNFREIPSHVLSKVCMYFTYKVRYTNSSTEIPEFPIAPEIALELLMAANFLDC
Procedure: The VHL NanoBRET™ Target Engagement Assay analyzes the apparent affinity of test compounds for VHL in cells by competitive displacement of a VHL NanoBRET™ tracer reversibly bound to a NanoLuc® VHL fusion protein stably expressed in the cells.
Test compounds were transferred to the assay plate (384 Well White Non-Binding Corning Assay Plates (Corning-3574)) using an Echo 555 Liquid Handler (Labcyte) in 2.5 nL increments and, as appropriate, intermediate stock concentrations of compounds, in order to prepare a titration series. 50 nL of control compound (10 mM; parental unlabeled VHL antagonist; see structure below) and 50 nL of DMSO (negative control) were dispensed into the appropriate control wells. DMSO was backfilled to a final volume of 50 nL as required. 50 nl per well of 1 mM VHL NanoBRET™ Tracer in DMSO (NanoBRET™ Tracer-PEG2-590 (see structure below)) was transferred into each well using an Echo 555 (ultimately yielding a final concentration of 1 uM). HEK 293 RT VHL-NanoLuc® stable cells were cultured in DMEM High Glucose with Pyruvate, 10% fetal bovine serum, 2 mg/mL of Geneticin Selective Antibiotic (50 mg/ml) and 2 mM HEPES (1 M). Cells were seeded in Opti-MEM (Life Technologies-11058-021), 1.7×10^5 cells/mL, 40 μl per well into the assay plate, centrifuged at 500 rpm for 30 seconds and incubated for 2 hours. Max Signal control wells consisted of DMSO only treated wells. Minimum Signal control wells contained of 10 uM parental unlabeled VHL antagonist (control compound—see structure below). 3× Complete Substrate plus Inhibitor Solution was prepared in Opti-MEM (consists of a 1:166 dilution of NanoBRET™ Nano-Glo® Substrate plus a 1:500 dilution of Extracellular NanoLuc® Inhibitor in Opti-MEM), and 20 ul was dispensed into each well of the 384-well plate and centrifuged at 1000 rpm for 1 minute, then incubated for 2 minutes at room temperature. Background Signal control wells were prepared without tracer for background correction steps.
Plates were read using a PerkinElmer Envision Reader (model 2104-0020) equipped with Luminescence option (Mirror: BRET2 Enh (PE Barcode 659), Emission Filter: Omega 610LP (Barcode 504), 2nd Emission Filter: Umbelliferone 460 (Barcode 207), Measurement height: 6.5 mm, Measurement time: 1 s). The raw BRET ratio values were calculated by dividing the acceptor emission value (610 nm) by the donor emission value (460 nm) for each sample. To correct for background, the BRET ratio in the absence of tracer (average of no-tracer control samples) was subtracted from the BRET ratio of each sample. Raw BRET units were converted to milliBRET units (mBU) by multiplying each raw BRET value by 1,000. The normalized NanoBRET™ signal was calculated relative to the Max Signal control wells (DMSO treated control wells) and the Minimum Signal control wells. Percentage inhibition was calculated relative to the Minimum Signal control and Maximum Signal control wells. IC50 values were derived by four parameter curve fitting using the Robust method.

VHL = target: T2, VHL (Homo sapiens, UniProt P40337); experiment: VHL nanoBRET (+Digitonin); type: cell-based
T2 construct: expressed in transfected cells
T2 sequence (P40337 whole entry): as the sequence (P40337 whole entry, the tested form may be a part) above
T2 sequence (Q15370 whole entry partner): as the sequence (Q15370 whole entry partner, the tested form may be a part) above
T2 sequence (Q15369 whole entry partner): as the sequence (Q15369 whole entry partner, the tested form may be a part) above

| Structure (SMILES) | IC50 [1] [µM] | Ratio cell permeability shift [1] | EC50 (VHL) [µM] |
| --- | --- | --- | --- |
| CNC(=O)[C@@H]1C[C@@H](O)CN1C(=O)[C@H](C1CCCCC1)n1cc(C2CC2)nn1 [Final product from Example S3, (2S,4R)-1-((S)-2-cyclohexyl-2-(4-cyclopropyl-1H-1,2,3-triazol-1-yl)acetyl)-4-hydroxy-N-methylpyrrolidine-2-carboxamide] | 1.61 | 0.96 | 1.67 |
| CNC(=O)[C@@H]1C[C@@H](O)CN1C(=O)[C@@H](n1cc(C2CC2)nn1)C(C)(C)C [Final product from Example S2, (2S,4R)-1-((S)-2-(4-cyclopropyl-1H-1,2,3-triazol-1-yl)-3,3-dimethylbutanoyl)-4-hydroxy-N-methylpyrrolidine-2-carboxamide] | 2.99 | 1.17 | 2.55 |
| CNC(=O)[C@@H]1C[C@@H](O)CN1C(=O)[C@H](C1CCN(C(C)=O)CC1)n1cc(C2CC2)nn1 [Final product from Example S9, (2S,4R)-1-((S)-2-(1-acetylpiperidin-4-yl)-2-(4-cyclopropyl-1H-1,2,3-triazol-1-yl)acetyl)-4-hydroxy-N-methylpyrrolidine-2-carboxamide] | 69.5 | 26.03 | 2.67 |
| CNC(=O)[C@@H]1C[C@@H](O)CN1C(=O)[C@H](C(C)C)n1cc(-c2ccco2)nn1 [Final product from Example S19, (2S, 4R)-1-((S)-2-(4-(furan-2-yl)-1H-1,2,3-triazol-1-yl)-3-methylbutanoyl)-4-hydroxy-N-methylpyrrolidine-2-carboxamide] | 0.8 | 0.90 | 0.89 |
| CNC(=O)[C@@H]1C[C@@H](O)CN1C(=O)[C@H](C(C)C)n1cc(C2CCCC2)nn1 [Final product from Example S22, (2S, 4R)-1-[(2S)-2-(4-cyclopentyltriazol-1-yl)-3-methyl-butanoyl]-4-hydroxy-N-methyl-pyrrolidine-2-carboxamide] | 3.21 | 1.15 | 2.78 |
| CNC(=O)[C@@H]1C[C@@H](O)CN1C(=O)[C@H](C(C)C)n1cc(-c2ccc[nH]2)nn1 (mixture of isomers) [Final product from Example S29, (2S, 4R)-4-hydroxy-N-methyl-1-[rac-(2S)-3-methyl-2-[4-(1H-pyrrol-2-yl)triazol-1-yl]butanoyl]pyrrolidine-2-carboxamide] | 2.65 | 1.26 | 2.11 |
| CNC(=O)[C@@H]1C[C@@H](O)CN1C(=O)[C@H](C(C)C)n1cc(-c2ncccn2)nn1 [Final product from Example S38, (2S,4R)-4-hydroxy-N-methyl-1-((S)-3-methyl-2-(4-(pyrimidin-2-yl)-1H-1,2,3-triazol-1-yl)butanoyl)pyrrolidine-2-carboxamide] | 13.8 | 3.40 | 4.06 |
| CNC(=O)[C@@H]1C[C@@H](O)CN1C(=O)[C@H](C(C)C)n1cc(-c2ccccc2)nn1 [Final product from Example S34, (2S,4R)-4-hydroxy-N-methyl-1-((S)-3-methyl-2-(4-phenyl-1H-1,2,3-triazol-1-yl)butanoyl)pyrrolidine-2-carboxamide] | 1.38 | 1.09 | 1.27 |
| CC(C)(C)[C@@H](C(=O)N1C[C@H](O)C[C@H]1C(=O)NCCF)n1cc(C2CC2)nn1 [Final product from Example S16, (2S,4R)-1-((S)-2-(4-cyclopropyl-1H-1,2,3-triazol-1-yl)-3,3-dimethylbutanoyl)-N-(2-fluoroethyl)-4-hydroxypyrrolidine-2-carboxamide] | 2.43 | 0.68 | 3.56 |
| CNC(=O)[C@@H]1C[C@@H](O)CN1C(=O)[C@H](C(C)C)n1cc(-c2nccs2)nn1 (mixture of isomers) [Final product from Example S31, (2S, 4R)-4-hydroxy-N-methyl-1-[rac-(2S)-3-methyl-2-(4-thiazol-2-yltriazol-1-yl)butanoyl]pyrrolidine-2-carboxamide] | 1.1 | 0.92 | 1.2 |
| CNC(=O)[C@@H]1C[C@@H](O)CN1C(=O)[C@H](C(C)C)n1cc(-c2ccccn2)nn1 [Final product from Example S35, (2S,4R)-4-hydroxy-N-methyl-1-((S)-3-methyl-2-(4-(pyridin-2-yl)-1H-1,2,3-triazol-1-yl)butanoyl)pyrrolidine-2-carboxamide] | 1.7 | 0.85 | 2.01 |
| CNC(=O)[C@@H]1C[C@@H](O)CN1C(=O)[C@@H](n1ccnn1)C(C)(C)C [Final product from Example S4, (2S,4R)-1-((S)-3,3-dimethyl-2-(1H-1,2,3-triazol-1-yl)butanoyl)-4-hydroxy-N-methylpyrrolidine-2-carboxamide] | 15.2 | 1.26 | 12.1 |
| CNC(=O)[C@@H]1C[C@@H](O)CN1C(=O)[C@H](C(C)C)n1nnc2c(OC)cccc21 (single isomer, unassigned) [Final product from Example S25] | 2.6 | 0.68 | 3.8 |
| CNC(=O)[C@@H]1C[C@@H](O)CN1C(=O)[C@H](C1CCOCC1)n1cc(C2CC2)nn1 (single isomer, unassigned) [Final product from Example S6] | 8.04 | 3.00 | 2.68 |
| CNC(=O)[C@@H]1C[C@@H](O)CN1C(=O)[C@H](C(C)C)n1cc(-c2cnco2)nn1 [Final product from Example S32, (2S, 4R)-4-hydroxy-N-methyl-1-[(2S)-3-methyl-2-(4-oxazol-5-yltriazol-1-yl)butanoyl]pyrrolidine-2-carboxamide] | 3.2 | 1.51 | 2.12 |
| CNC(=O)[C@@H]1C[C@@H](OC(C)=O)CN1C(=O)[C@@H](n1cc(C2CC2)nn1)C(C)(C)C [Final product from Example S12, (3R,5S)-1-((S)-2-(4-cyclopropyl-1H-1,2,3-triazol-1-yl)-3,3-dimethylbutanoyl)-5-(methylcarbamoyl)pyrrolidin-3-yl Acetate] | 62.8 | 0.68 | 92.8 |
| CNC(=O)[C@@H]1C[C@@H](O)CN1C(=O)[C@H](C1CCNCC1)n1cc(C2CC2)nn1 [Final product from Example S7, (2S,4R)-1-((S)-2-(4-cyclopropyl-1H-1,2,3-triazol-1-yl)-2-(piperidin-4-yl)acetyl)-4-hydroxy-N-methylpyrrolidine-2-carboxamide] | – | >10.00 | 8.96 |
| CNC(=O)[C@@H]1C[C@@H](O)CN1C(=O)C(n1cc(C2CC2)nn1)C1(C)CCCCC1 (stereo partly drawn) [Final product from Example S5, (2S,4R)-1-[2-(4-cyclopropyltriazol-1-yl)-2-(1-methylcyclohexyl)acetyl]-4-hydroxy-N-methyl-pyrrolidine-2-carboxamide] | 10.5 | 1.24 | 8.45 |
